Data as given in patent publication US11746100B2 (GLOBAL BLOOD THERAPEUTICS, INC., priority 2020, dated 2023).

target: T1, human ferroportin (Homo sapiens, UniProt Q9NP59); experiment: Biological in-vitro ferroportin internalization assay (luciferase reporter); assay type: cell-based; conditions: average pEC50; stably-transfected CHO cell line expressing human ferroportin tagged to a luciferase reporter; 6 h incubation with test compound
T1 construct: luciferase reporter (read with the Nano-Glo Luciferase Assay System); expressed in transfected cells; host or cells: CHO cells, stably transfected, expression induced with doxycycline
T1 sequence (Q9NP59 1-571): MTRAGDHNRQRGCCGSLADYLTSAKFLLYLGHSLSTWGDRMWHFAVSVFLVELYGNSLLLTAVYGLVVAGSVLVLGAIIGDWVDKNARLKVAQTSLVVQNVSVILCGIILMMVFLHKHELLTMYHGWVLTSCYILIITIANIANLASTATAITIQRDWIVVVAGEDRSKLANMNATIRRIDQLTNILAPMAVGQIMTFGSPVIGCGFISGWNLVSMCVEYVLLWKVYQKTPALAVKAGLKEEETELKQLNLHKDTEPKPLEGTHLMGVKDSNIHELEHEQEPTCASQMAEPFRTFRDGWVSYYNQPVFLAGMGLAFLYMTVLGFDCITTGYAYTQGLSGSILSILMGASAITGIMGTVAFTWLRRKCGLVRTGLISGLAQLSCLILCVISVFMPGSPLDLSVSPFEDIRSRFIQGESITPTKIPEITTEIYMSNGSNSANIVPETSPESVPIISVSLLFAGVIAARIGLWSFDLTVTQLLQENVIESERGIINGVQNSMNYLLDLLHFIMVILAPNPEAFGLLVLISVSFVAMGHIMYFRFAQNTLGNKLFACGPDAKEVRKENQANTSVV
In short: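 Stably transfected CHO cells expressing luciferase-tagged human ferroportin, plated 24 h with ferric ammonium citrate and induced with doxycycline for 24 h. Compounds incubated 6 h, then luciferase activity measured by Nano-Glo; average pEC50 reported.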

Row | Compound | pEC50
1 | CCC(O)(CC)COc1ccnc(-c2nc3c(c(N(C)CC(=O)N[C@@H]4CCC[C@@H]4O)n2)CCC3)c1 [Compound 469, 2-({2-[4-(2-ethyl-2-hydroxybutoxy)pyridin-2-yl]-5H,6H,7H-cyclopenta[d]pyrimidin-4-yl}(methyl)amino)-N-[(1R,2S)-2-hydroxycyclopentyl]acetamidede] | 8.3
2 | CN(C)CCOc1ccnc(-c2nc3c(c(N(CC(=O)NC(C)(C)C)CC(F)(F)F)n2)CCC3)c1 [Compound 470, N-tert-butyl-2-[(2-{4-[2-(dimethylamino)ethoxy]pyridin-2-yl}-5H,6H,7H-cyclopenta[d]pyrimidin-4-yl)(2,2,2-trifluoroethyl)amino]acetamide] | 7.2
3 | COc1ccnc(-c2nc3c(c(N(C)CC(=O)N4CC[C@@H](O)C4)n2)CCC3)c1 [Compound 471, 1-[(3R)-3-hydroxypyrrolidin-1-yl]-2-{[2-(4-methoxypyridin-2-yl)-5H,6H,7H-cyclopenta[d]pyrimidin-4-yl](methyl)amino}ethan-1-one] | 7.4
4 | COc1ccnc(-c2nc3c(c(N(C)CC(=O)N4CC[C@H](O)C4)n2)CCC3)c1 [Compound 472, 1-[(3S)-3-hydroxypyrrolidin-1-yl]-2-{[2-(4-methoxypyridin-2-yl)-5H,6H,7H-cyclopenta[d]pyrimidin-4-yl](methyl)amino}ethan-1-one] | 7.4
5 | CN(C)CCOc1ccnc(-c2nc3c(c(N(C)CC(=O)NCC(F)(F)F)n2)CCC3)c1 [Compound 478, 2-[(2-{4-[2-(dimethylamino)ethoxy]pyridin-2-yl}-5H,6H,7H-cyclopenta[d]pyrimidin-4-yl)(methyl)amino]-N-(2,2,2-trifluoroethyl)acetamide] | 7.6
6 | CN(CC(=O)NCC(F)(F)F)c1nc(-c2cc(OCC(C)(C)O)ccn2)nc2c1CCC2 [Compound 479, 2-({2-[4-(2-hydroxy-2-methylpropoxy)pyridin-2-yl]-5H,6H,7H-cyclopenta[d]pyrimidin-4-yl}(methyl)amino)-N-(2,2,2-trifluoroethyl)acetamide] | 7.9
7 | CNCCCc1ccnc(-c2nc3c(c(N(C)CC(=O)NC(C)(C)C)n2)CCC3)c1 [Compound 480, N-tert-butyl-2-[methyl(2-{4-[3-(methylamino)propyl]pyridin-2-yl}-5H,6H,7H-cyclopenta[d]pyrimidin-4-yl)amino]acetamide] | 7.3
8 | CN(CC(=O)NC(C)(C)C)c1nc(-c2cc(CCC(C)(C)O)ccn2)nc2c1CCC2 [Compound 481, N-tert-butyl-2-({2-[4-(3-hydroxy-3-methylbutyl)pyridin-2-yl]-5H,6H,7H-cyclopenta[d]pyrimidin-4-yl}(methyl)amino)acetamide] | 7.7
9 | CN(CC(=O)NC(C)(C)C)c1nc(-c2cc(O)ccn2)nc2c1CCC2 [Compound 482, N-tert-butyl-2-{[2-(4-hydroxypyridin-2-yl)-5H,6H,7H-cyclopenta[d]pyrimidin-4-yl](methyl)amino}acetamide] | 6.1
10 | C[C@H](CN(C)C)Oc1ccnc(-c2nc3c(c(N(C)CC(=O)NC4(C(F)(F)F)CC4)n2)CCC3)c1 [Compound 486, 2-{[2-(4-{[(2R)-1-(dimethylamino)propan-2-yl]oxy}pyridin-2-yl)-5H,6H,7H-cyclopenta[d]pyrimidin-4-yl](methyl)amino}-N-[1-(trifluoromethyl)cyclopropyl]acetamide] | 7.4
11 | CN1CC[C@@H](Oc2ccnc(-c3nc4c(c(N(C)CC(=O)NC5(C(F)(F)F)CC5)n3)CCC4)c2)C1 [Compound 487, 2-{methyl[2-(4-{[(3R)-1-methylpyrrolidin-3-yl]oxy}pyridin-2-yl)-5H,6H,7H-cyclopenta[d]pyrimidin-4-yl]amino}-N-[1-(trifluoromethyl)cyclopropyl]acetamide] | 7.5
12 | C[C@@H]1C[C@@H](Oc2ccnc(-c3nc4c(c(N(C)CC(=O)NC(C)(C)C)n3)CCC4)c2)CN1C [Compound 488, N-tert-butyl-2-{[2-(4-{[(3R,5R)-1,5-dimethylpyrrolidin-3-yl]oxy}pyridin-2-yl)-5H,6H,7H-cyclopenta[d]pyrimidin-4-yl](methyl)amino}acetamide] | 7.8
13 | CN1CCC[C@@H](Oc2ccnc(-c3nc4c(c(N(C)CC(=O)NC(C)(C)C)n3)CCC4)c2)C1 [Compound 489, N-tert-butyl-2-{methyl[2-(4-{[(3R)-1-methylpiperidin-3-yl]oxy}pyridin-2-yl)-5H,6H,7H-cyclopenta[d]pyrimidin-4-yl]amino}acetamide] | 8.2
14 | CN(C)CCOc1ccnc(-c2cc(N(C)CC(=O)NC(C)(C)C)c3c(n2)CCC3)c1 [Compound 495, N-tert-butyl-2-[(2-{4-[2-(dimethylamino)ethoxy]pyridin-2-yl}-5H,6H,7H-cyclopenta[b]pyridin-4-yl)(methyl)amino]acetamide] | 7.4

More lines, now with the values ahead:

Row | pEC50 | Compound
15 | 8.3 | CN(CC(=O)NC(C)(C)C)c1nc(-c2cc(OCCN3CC[C@@H](F)C3)ccn2)nc2c1CCC2 [Compound 473, N-tert-butyl-2-{[2-(4-{2-[(3R)-3-fluoropyrrolidin-1-yl]ethoxy}pyridin-2-yl)-5H,6H,7H-cyclopenta[d]pyrimidin-4-yl](methyl)amino}acetamide]
16 | 8.3 | CN(CC(=O)NC(C)(C)C)c1nc(-c2cc(OCCN3CC[C@H](F)C3)ccn2)nc2c1CCC2 [Compound 474, N-tert-butyl-2-{[2-(4-{2-[(3S)-3-fluoropyrrolidin-1-yl]ethoxy}pyridin-2-yl)-5H,6H,7H-cyclopenta[d]pyrimidin-4-yl](methyl)amino}acetamide]
17 | 7.6 | CN(C)CCCc1ccnc(-c2nc3c(c(N(C)CC(=O)NC(C)(C)C)n2)CCC3)c1 [Compound 475, N-tert-butyl-2-[(2-{4-[3-(dimethylamino)propyl]pyridin-2-yl}-5H,6H,7H-cyclopenta[d]pyrimidin-4-yl)(methyl)amino]acetamide]
18 | 6.7 | COc1ccnc(-c2nc3c(c(N(C)CC(=O)NCCN(C)C)n2)CCC3)c1 [Compound 476, N-[2-(dimethylamino)ethyl]-2-{[2-(4-methoxypyridin-2-yl)-5H,6H,7H-cyclopenta[d]pyrimidin-4-yl](methyl)amino}acetamide]
19 | 6.9 | COc1ccnc(-c2nc3c(c(N(C)CC(=O)N4CCOCC4)n2)CCC3)c1 [Compound 477, 2-{[2-(4-methoxypyridin-2-yl)-5H,6H,7H-cyclopenta[d]pyrimidin-4-yl](methyl)amino}-1-(morpholin-4-yl)ethan-1-one]
20 | 7.2 | CN(CC(=O)NC(C)(C)C)c1nc(-c2cc(OCCN)ccn2)nc2c1CCC2 [Compound 483, 2-({2-[4-(2-aminoethoxy)pyridin-2-yl]-5H,6H,7H-cyclopenta[d]pyrimidin-4-yl}(methyl)amino)-N-tert-butylacetamide]
21 | 7 | CN(C)CCOc1ccnc(-c2nc3c(c(NCC(=O)NC(C)(C)C)n2)CCC3)c1 [Compound 484, N-tert-butyl-2-[(2-{4-[2-(dimethylamino)ethoxy]pyridin-2-yl}-5H,6H,7H-cyclopenta[d]pyrimidin-4-yl)amino]acetamide]
22 | 7.1 | CNCCOc1ccnc(-c2nc3c(c(NCC(=O)NC(C)(C)C)n2)CCC3)c1 [Compound 485, N-tert-butyl-2-[(2-{4-[2-(methylamino)ethoxy]pyridin-2-yl}-5H,6H,7H-cyclopenta[d]pyrimidin-4-yl)amino]acetamide]
23 | 7.9 | CN1CCC[C@H](Oc2ccnc(-c3nc4c(c(N(C)CC(=O)NC(C)(C)C)n3)CCC4)c2)C1 [Compound 490, N-tert-butyl-2-{methyl[2-(4-{[(3S)-1-methylpiperidin-3-yl]oxy}pyridin-2-yl)-5H,6H,7H-cyclopenta[d]pyrimidin-4-yl]amino}acetamide]
24 | 8.2 | CN(CC(=O)NC(C)(C)C)c1nc(-c2cc(O[C@@H]3CCN(CC(F)F)C3)ccn2)nc2c1CCC2 [Compound 491, N-tert-butyl-2-{[2-(4-{[(3R)-1-(2,2-difluoroethyl)pyrrolidin-3-yl]oxy}pyridin-2-yl)-5H,6H,7H-cyclopenta[d]pyrimidin-4-yl](methyl)amino}acetamide]
25 | 6.6 | CN(CC(=O)NC(C)(C)C)c1nc(-c2cc(OCC(C)(C)O)ccn2)nc2c1C(=O)CC2 [Compound 492, N-tert-butyl-2-({2-[4-(2-hydroxy-2-methylpropoxy)pyridin-2-yl]-5-oxo-5H,6H,7H-cyclopenta[d]pyrimidin-4-yl}(methyl)amino)acetamide]
26 | 6.9 | CN(C)CCOc1ccnc(-c2nc3c(c(N(C)CC(=O)NC(C)(C)C)n2)C(O)CC3)c1 (stereo not drawn) [Compound 493, N-tert-butyl-2-[(2-{4-[2-(dimethylamino)ethoxy]pyridin-2-yl}-5-hydroxy-5H,6H,7H-cyclopenta[d]pyrimidin-4-yl)(methyl)amino]acetamide]
27 | 6.3 | CN(C)CCOc1ccnc(-c2nc3c(c(N(C)CC(=O)NC(C)(C)C)n2)CCC3O)c1 (stereo not drawn) [Compound 494, N-tert-butyl-2-[(2-{4-[2-(dimethylamino)ethoxy]pyridin-2-yl}-7-hydroxy-5H,6H,7H-cyclopenta[d]pyrimidin-4-yl)(methyl)amino]acetamide]
